Measured values: patent US8785442B2, “Compound as antagonist of lysophosphatidic acid receptor, composition, and use thereof” (Curegenix, Inc., priority 2011, dated 2014)

Key:
human LPA1 receptor = molecular target: T1, human LPA1 receptor (Homo sapiens, UniProt Q92633); assay: calcium flux assay (LPA Receptor Assays); type: cell-based
T1 construct: The 1.1 kb cDNA encoding the full-length coding region of human LPA1 was subcloned into the pRK5; expressed in transfected cells; host or cells: HEK293 or CHO cells
T1 sequence (Q92633 whole entry): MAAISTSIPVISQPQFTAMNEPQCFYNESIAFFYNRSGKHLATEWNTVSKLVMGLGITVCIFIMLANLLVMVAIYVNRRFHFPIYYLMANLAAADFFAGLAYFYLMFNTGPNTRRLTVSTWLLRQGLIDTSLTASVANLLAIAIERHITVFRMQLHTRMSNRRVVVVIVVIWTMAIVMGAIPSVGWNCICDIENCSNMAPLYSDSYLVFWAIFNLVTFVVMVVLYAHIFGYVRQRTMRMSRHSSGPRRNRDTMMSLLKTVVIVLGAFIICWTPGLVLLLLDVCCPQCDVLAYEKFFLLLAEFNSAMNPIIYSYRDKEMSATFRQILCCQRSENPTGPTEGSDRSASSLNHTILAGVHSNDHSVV
Experimental: A cDNA encoding the human LPA1 receptor was cloned by PCR from cDNA clone obtained from commercial sources. The nucleotide sequence was determined by sequencing and confirmed to be identical to the published human LPA1 sequence (An, 1997). The 1.1 kb cDNA encoding the full-length coding region of human LPA1 was subcloned into the pRK5 […] expression vector. Transfection of the cDNA into HEK293 or CHO cells is performed by using LipofectAmine 2000 (Invitrogen, USA). The full-length cDNA fragments for human LPA2 and LPA3 were obtained by PCR similarly and subcloned into pCDNA3.1 expression vector.
Transfected cells were cultured and subjected to LPA-induced SRE-luciferase reporter gene assay by using generally described methods (An, 1997). Intact HEK293 or CHO cells expressing the recombinant human LPA1 receptor were subjected to a [3H]-LPA ligand binding assay as described (An, 1998).
All compounds presented in the patent have IC50<20 μM in the calcium flux assay.

breast cancer cells = details: animal models (Boucharaba, 2006); cited from earlier work
[1] = system: highly peritoneal metastatic pancreatic cancer cell line; details: highly peritoneal metastatic pancreatic cancer cell line (Yamada, 2004); cited from earlier work

SMILES	IC50 (human LPA1 receptor) [nM]	metastasis of breast cancer cells to bone (breast cancer cells)	LPA-induced and ascites-induced invasion activity [1]
Cc1noc(-c2ccc(NS(C)(=O)=O)cc2)c1NC(=O)OC(C)c1ccccc1Cl (stereo not drawn) [Compound 1, 1-(2-chlorophenyl)ethyl(3-methyl-5-(4-(methylsulfonamido)phenyl)isoxazol-4-yl)carbamate]	90		
Cc1noc(-c2ccc3[nH]ncc3c2)c1NC(=O)OC(C)c1ccccc1Cl (stereo not drawn) [Compound 3, 1-(2-chlorophenyl)ethyl(5-(1H-indazol-5-yl)-3-methylisoxazol-4-yl)carbamate]	550		
Cc1noc(-c2ccc(NC(=O)C3CC3)cc2)c1NC(=O)OC(C)c1ccccc1Cl (stereo not drawn) [Compound 7, 1-(2-chlorophenyl)ethyl(5-(4-(cyclopropanecarboxamido)phenyl)-3-methylisoxazol-4-yl)carbamate]	1150		
Cc1noc(-c2ccc(NC(=O)CCC(=O)O)cc2)c1NC(=O)OC(C)c1ccccc1Cl (stereo not drawn) [Compound 12, 4-((4-(4-(((1-(2-chlorophenyl)ethoxy)carbonyl)amino)-3-methylisoxazol-5-yl)phenyl)amino)-4-oxobutanoic acid]	70		
Cc1noc(-c2ccc(NC(=O)c3ccccc3)cc2)c1NC(=O)OC(C)c1ccccc1Cl (stereo not drawn) [Compound 16, 1-(2-chlorophenyl)ethyl(5-(4-benzamidophenyl)-3-methylisoxazol-4-yl)carbamate]	2200		
Cc1noc(-c2ccc(CSCCC(=O)O)cc2)c1NC(=O)OC(C)c1ccccc1Cl (stereo not drawn) [Ki16425]		inhibited	blocked

Continued, in another order:

IC50 (human LPA1 receptor) [nM]	SMILES	metastasis of breast cancer cells to bone (breast cancer cells)	LPA-induced and ascites-induced invasion activity [1]
55	Cc1noc(-c2ccc(NS(C)(=O)=O)cc2)c1NC(=O)O[C@H](C)c1ccccc1Cl [Compound 19, (R)-1-(2-chlorophenyl)ethyl(3-methyl-5-(4-(methylsulfonamido)phenyl)isoxazol-4-yl)carbamate]		
110	Cc1noc(-c2ccc(NS(=O)(=O)CCC(=O)O)cc2)c1NC(=O)OC(C)c1ccccc1Cl (stereo not drawn) [Compound 28, 3-(N-(4-(4-(((1-(2-chlorophenyl)ethoxy)carbonyl)amino)-3-methylisoxazol-5-yl)phenyl)sulfamoyl)propanoic acid]		
70	Cc1noc(-c2ccc(NS(C)(=O)=O)cc2F)c1NC(=O)OC(C)c1ccccc1Cl (stereo not drawn) [Compound 32, 1-(2-chlorophenyl)ethyl(5-(2-fluoro-4-(methylsulfonamido)phenyl)-3-methylisoxazol-4-yl)carbamate]		
60	Cc1noc(-c2ccc(NS(C)(=O)=O)cc2)c1NC(=O)OC(C)c1ccc(F)cc1Cl (stereo not drawn) [Compound 42, 1-(2-chloro-4-fluorophenyl)ethyl(3-methyl-5-(4-(methylsulfonamido)phenyl)isoxazol-4-yl)carbamate]		
70	Cc1noc(-c2ccc(NC(=O)CCC(=O)O)cc2F)c1NC(=O)O[C@H](C)c1ccccc1Cl [Compound 50, (R)-4-((4-(4-(((1-(2-chlorophenyl)ethoxy)carbonyl)amino)-3-methylisoxazol-5-yl)-3-fluorophenyl)amino)-4-oxobutanoic acid]		
